The source of these data is article PMC9089800 (RSC Advances, 2018).

A value given as a limit tells only on which side of the number the result lay.

The subject of this experiment is MCF7. Description: MTT growth inhibition / cytotoxicity assay, MCF7. It is filed as cell-based, human. Particulars: Homo sapiens, MCF7, 48 h, read-out: IC50 in μM MCF7, MTT, 48 h, 0–100 μM.
A word on the IC50: it is the concentration that inhibits the measured activity by half. On to `C=C1[C@@H]2[C@H]3OC(=O)[C@@H](CN[C@@H](C)c4ccccc4)[C@@H]3CCC(=C)[C@@H]2C[C@@H]1O` [Compound 4, (3R,3aS,6aR,8S,9aR,9bS)-8-Hydroxy-6,9-dimethylene-3-((((S)-1-phenylethyl)amino)methyl)decahydroazuleno[4,5-b]furan-2(3H)-one], for which the IC50 is > 100 µM.
In the case of `C=C1[C@@H]2[C@H]3OC(=O)[C@@H](CN[C@H](C)c4ccccc4)[C@@H]3CCC(=C)[C@@H]2C[C@@H]1O` [Compound 6, (3R,3aS,6aR,8S,9aR,9bS)-8-Hydroxy-6,9-dimethylene-3-((((R)-1-phenylethyl)amino)methyl)decahydroazuleno[4,5-b]furan-2(3H)-one], the IC50 is > 100 µM.
Turning to `C=C1[C@@H]2[C@H]3OC(=O)[C@@H](CN[C@@H](C)c4cccc5ccccc45)[C@@H]3CCC(=C)[C@@H]2C[C@@H]1OC(C)=O` [Compound 7, (3R,3aS,6aR,8S,9aR,9bS)-6,9-Dimethylene-3-((((S)-1-(naphthalen-1-yl)ethyl)amino)methyl)-2-oxododecahydroazuleno[4,5-b]furan-8-yl acetate], the IC50 was > 100 µM.
Then `C=C1[C@@H]2[C@H]3OC(=O)[C@@H](CN[C@@H](C)c4cccc5ccccc45)[C@@H]3CCC(=C)[C@@H]2C[C@@H]1O` [Compound 8, (3R,3aS,6aR,8S,9aR,9bS)-8-Hydroxy-6,9-dimethylene-3-((((S)-1-(naphthalene-1-yl)ethyl)amino)methyl)decahydroazuleno[4,5-b] furan-2(3H)-one], with 75.8 ± 3 µM; and `C=C1[C@@H]2[C@H]3OC(=O)[C@@H](CN[C@H](C)C4CCCCC4)[C@@H]3CCC(=C)[C@@H]2C[C@@H]1O` [Compound 11, (3R,3aS,6aR,8S,9aR,9bS)-3-((((R)-1-Cyclohexylethyl)amino)methyl)-8-hydroxy-6,9-dimethylenedecahydroazuleno[4,5-b]furan-2(3H)-one], with > 100 µM.
Under `C=C1[C@@H]2[C@H]3OC(=O)[C@@H](CN[C@@H](C)C4CCCCC4)[C@@H]3CCC(=C)[C@@H]2C[C@@H]1O` [Compound 12, (3R,3aS,6aR,8S,9aR,9bS)-3-((((S)-1-Cyclohexylethyl)amino)methyl)-8-hydroxy-6,9-dimethylenedecahydroazuleno[4,5-b]furan-2(3H)-one] stands > 100 µM.
Then `C=C1[C@@H]2[C@H]3OC(=O)[C@@H](CN4CCOCC4)[C@@H]3CCC(=C)[C@@H]2C[C@@H]1OC(C)=O` [Compound 17, (3R,3aS,6aR,8S,9aR,9bS)-6,9-Dimethylene-3-(morpholinomethyl)-2-oxododecahydroazuleno[4,5-b]furan-8-yl acetate], with > 100 µM; and `C=C1[C@@H]2[C@H]3OC(=O)[C@@H](CN4CCOCC4)[C@@H]3CCC(=C)[C@@H]2C[C@@H]1O` [Compound 18, (3R,3aS,6aR,8S,9aR,9bS)-8-Hydroxy-6,9-dimethylene-3-(morpholinomethyl)decahydroazuleno[4,5-b]furan-2(3H)-one], with > 100 µM.
As for `C=C1[C@@H]2[C@H]3OC(=O)[C@@H](CN4CCCC4)[C@@H]3CCC(=C)[C@@H]2C[C@@H]1O` [Compound 19, (3R,3aS,6aR,8S,9aR,9bS)-8-Hydroxy-6,9-dimethylene-3-(pyrrolidin-1-ylmethyl)decahydroazuleno[4,5-b]furan-2(3H)-one], the IC50 was > 100 µM.
Then `C=C1[C@@H]2[C@H]3OC(=O)[C@@H](CN4CCCCC4)[C@@H]3CCC(=C)[C@@H]2C[C@@H]1O` [Compound 20, (3R,3aS,6aR,8S,9aR,9bS)-8-Hydroxy-6,9-dimethylene-3-(piperidin-1-ylmethyl)decahydroazuleno[4,5-b]furan-2(3H)-one], with > 100 µM; and `C=C1[C@@H]2[C@H]3OC(=O)[C@@H](COC)[C@@H]3CCC(=C)[C@@H]2C[C@@H]1O` [Compound 22, (3R,3aS,6aR,8S,9aR,9bS)-8-Hydroxy-3-(methoxymethyl)-6,9-dimethylenedecahydroazuleno[4,5-b]furan-2(3H)-one], with > 100 µM; and `C=C1[C@@H]2[C@H]3OC(=O)/C(=C/c4ccc(C)cc4)[C@@H]3CCC(=C)[C@@H]2C[C@@H]1OC(C)=O` [Compound 23, (3aS,6aR,8S,9aR,9bS)-3-((E)-4-Methylbenzylidene)-6,9-dimethylene-2-oxododecahydroazuleno[4,5-b]furan-8-yl acetate], with > 100 µM.
Consider `C=C1[C@@H]2[C@H]3OC(=O)/C(=C/c4cccc(C(F)(F)F)c4)[C@@H]3CCC(=C)[C@@H]2C[C@@H]1OC(C)=O` [Compound 24, (3aS,6aR,8S,9aR,9bS)-6,9-Dimethylene-2-oxo-3-((E)-3-(trifluoro-methyl)benzylidene)dodecahydroazuleno[4,5-b]furan-8-yl acetate], for which the IC50 is > 100 µM.
Consider `C=C1[C@@H]2[C@H]3OC(=O)/C(=C/c4ccc(Cl)cc4)[C@@H]3CCC(=C)[C@@H]2C[C@@H]1OC(C)=O` [Compound 25, (3aS,6aR,8S,9aR,9bS)-3-((E)-4-Chlorobenzylidene)-6,9-dimethylene-2-oxododecahydroazuleno[4,5-b]furan-8-yl acetate], for which the IC50 is > 100 µM.
As for `C=C1[C@@H]2[C@H]3OC(=O)/C(=C/c4c(OC)cccc4[N+](=O)[O-])[C@@H]3CCC(=C)[C@@H]2C[C@@H]1OC(C)=O` [Compound 26, (3aS,6aR,8S,9aR,9bS)-3-((E)-2-Methoxy-6-nitrobenzylidene)-6,9-dimethylene-2-oxododecahydroazuleno[4,5-b]furan-8-yl acetate], the IC50 was > 100 µM.
Then `C=C1[C@@H]2[C@H]3OC(=O)/C(=C/c4ccc(C)c([N+](=O)[O-])c4)[C@@H]3CCC(=C)[C@@H]2C[C@@H]1OC(C)=O` [Compound 27, (3aS,6aR,8S,9aR,9bS)-3-((E)-4-Methyl-3-nitrobenzylidene)-6,9-dimethylene-2-oxododecahydroazuleno[4,5-b]furan-8-yl acetate], with > 100 µM.
Take `C=C1[C@@H]2[C@H]3OC(=O)/C(=C/c4ccc(NC(C)=O)c(C(F)(F)F)c4)[C@@H]3CCC(=C)[C@@H]2C[C@@H]1OC(C)=O` [Compound 28, (3aS,6aR,8S,9aR,9bS)-3-((E)-4-Acetamido-3-(trifluoromethyl)benzylidene)-6,9-dimethylene-2-oxododecahydroazuleno[4,5-b] furan-8-yl acetate]: the IC50 is > 100 µM.
Then `C=C1[C@@H]2[C@H]3OC(=O)/C(=C/c4ccccc4C)[C@@H]3CCC(=C)[C@@H]2C[C@@H]1OC(C)=O` [Compound 29, (3aS,6aR,8S,9aR,9bS)-3-((E)-2-Methylbenzylidene)-6,9-dimethylene-2-oxododecahydroazuleno[4,5-b]furan-8-yl acetate], with 74 µM; and `C=C1[C@@H]2[C@H]3OC(=O)/C(=C/c4ccc(C(=O)OC)cc4)[C@@H]3CCC(=C)[C@@H]2C[C@@H]1OC(C)=O` [Compound 30, Methyl-4-((E)-((3aS,6aR,8S,9aR,9bS)-8-acetoxy-6,9-dimethylene-2-oxodecahydroazuleno[4,5-b]furan-3(2H)-ylidene)methyl)benzoate], with > 100 µM; and `C=C1[C@@H]2[C@H]3OC(=O)/C(=C/c4ccccc4[N+](=O)[O-])[C@@H]3CCC(=C)[C@@H]2C[C@@H]1OC(C)=O` [Compound 32, (3aS,6aR,8S,9aR,9bS)-6,9-Dimethylene-3-((E)-2-nitrobenzylidene)-2-oxododecahydroazuleno[4,5-b]furan-8-yl acetate], with 36.5 µM.
